Results from US4783528A, “Steroidal lariat ethers” (University of Miami (Department of Chemistry), priority 1987, dated 1988).

Columns and labels:
[1] = Cation binding constant (log KS) for K+ in anhydrous methanol at 25° C.; conditions: decadic (log10) logarithm of equilibrium constant lariat ether + cation = complex
Protocol: (§1) As a result, only the macroring itself is expected to provide cation binding sites.
(§2) ^a Binding constants determined in anhydrous methanol solution at
(§3) 25° C. as described in the articles by Dishong et al., and Schultz
(§4) Notes. a. Binding constants determined in anhydrous methanol solution at 25° C. as described in the articles by Dishong et al., and Schultz et al. referred to above.
(§5) The binding constant, usually referred to as KS, is the equilibrium constant for the reaction: lariat ether + cation .revreaction. complex. The values in the table are expressed as decadic (log10) logarithms.

[2] = Cation binding constant (log KS) for Na+ in anhydrous methanol at 25° C.; conditions: decadic (log10) logarithm of equilibrium constant lariat ether + cation = complex
Protocol: as §1, §2, §3, §4, §5

| Compound | Cation Binding Constants (log KS), K^+ [1] | Cation Binding Constants (log KS), Na^+ [2] |
| --- | --- | --- |
| CC(C)CCC[C@@H](C)[C@H]1CC[C@H]2[C@@H]3CC=C4C[C@@H](OC(=O)N5CCOCCOCCOCCOCCOCC5)CC[C@]4(C)[C@H]3CC[C@]12C [Compound 9, N-(Cholesteryloxycarbonyl)aza-18-crown-6] | 1.78 | 2.07 |
| CC(C)CCC[C@@H](C)[C@H]1CC[C@H]2[C@@H]3CC=C4C[C@@H](OC(=O)CN5CCOCCOCCOCCOCCOCC5)CC[C@]4(C)[C@H]3CC[C@]12C [Compound 5, Cholesteryl (4-aza-18-crown-6) acetate] | 5.75 | 4.56 |
| Cholestanyl (4-aza-18-crown-6)acetate [Compound 7] | 5.78 | 4.58 |
| CC(C)CCC[C@@H](C)[C@H]1CC[C@H]2[C@@H]3CC=C4C[C@@H](OC(=O)N5CCOCCOCCOCCOCC5)CC[C@]4(C)[C@H]3CC[C@]12C [Compound 8, N-(Cholesteryloxycarbonyl)aza-15-crown-5] | < 1.5 | < 1.5 |
| CC(C)CCC[C@@H](C)[C@H]1CC[C@H]2[C@@H]3CC=C4C[C@@H](OC(=O)CN5CCOCCOCCOCCOCC5)CC[C@]4(C)[C@H]3CC[C@]12C [Compound 4, Cholesteryl (4-aza-15-crown-5)acetate] | 4.03 | 4.10 |
| CC(C)CCC[C@@H](C)[C@H]1CC[C@H]2[C@@H]3CC[C@H]4C[C@@H](OC(=O)CN5CCOCCOCCOCCOCC5)CC[C@]4(C)[C@H]3CC[C@]12C [Compound 6, Cholestanyl (4-aza-15-crown-5) acetate] | 4.03 | 4.12 |
